A short description of one series: in vivo. The following applies: male, Wistar, rat, po. The procedure: The EOC concentration in the aliquots of each specific section ((i) cargo release experiments, Section 2.6; (ii) EOCs permeability across the intestinal barriers, Section 2.13; and (iii) in vivo pharmacokinetic assays, Section 2.17) was analyzed by HPLC. For Thy and Eug molecules, the mobile phase used was ACN:H2O 50:50 v/v with 0.05% of TFA and absorbance detector using λex = 280 nm. For Cin, the mobile phase was ACN:H2O 85:15 v/v with 0.05% of TFA and λex = 254 nm. […] of volume injection were used and a flow of 1 mL/min was fixed. The methods were previously validated with adequate linearity, precision and accuracy (R > 0.99 and coefficient of variation < 5%).
In vivo experiments with M41-Cin-L in a Wistar rat model were carried out in order to study the concentration of cinnamaldehyde, free and encapsulated, in plasma and in the different gastrointestinal sections. The animal study was approved by the Scientific Committee of the Faculty of Pharmacy Universidad Miguel Hernández, Elche (project reference DI-MBS-02-15) and followed the guidelines described in the EC Directive 86/609, the Council of the Europe Convention ETS 123 and Spanish national laws governing the use of animals in research (Real Decreto 223/1988, BOE 67, 18-3-98:8509-8511). […] The concentration of Cin in each sample was determined by HPLC following the methodology described in Section 2.7.

The next series relates to MCP-1. Nature of the series: Inflammatory response measurement: MCP-1 release in apical media. It is filed as cell-based, Human. Conditions: 24 h, EOC 200 μM free or in M41-EOC-L; LPS 10 μg/mL positive control. As for the experimental part:
The Caco-2 cell epithelia were incubated in cell culture medium with each treatment, free EOCs (200 μM) and […] solids (concentration of particles corresponding to a 200 μM EOC-payload), during the time required to perform the assay: 90 min for EOCs permeability (see Section 2.13) and 24 h for the other interaction studies (Lucifer yellow, Section 2.14, and inflammatory response measurement, Section 2.15). In addition, some cell inserts were incubated with free medium at the same conditions as negative controls. TEER measurements were performed before and after each treatment to ascertain the validity of the membranes before the assay and to know the treatment's effect on them. Inflammatory cytokine and chemokine release (IL-8, MCP-1) was measured in the apical media from the enterocyte layers after 24 h of treatment with the corresponding […]-EOC-L and free EOCs. For the measurement, a Bio-Plex 1 MAGPIX TM Multiplex Reader (Bio-Rad) was employed according to the manufacturer-described-procedure. The cells were stimulated with 10 μg/mL LPS as positive control.

As a reminder, the Tmax is the time from dosing to the highest level. By half-life is commonly meant the time needed for the level to fall by half in the phase considered. Lower therefore signals rapid decline. Take `O=C/C=C/c1ccccc1` [Cin, cinnamaldehyde]: in “in vivo”, the time to peak (Tmax) was 0.75 h and the half-life was 1.36 h.
`C=CCc1ccc(O)c(OC)c1` [Eug, eugenol]: the “MCP-1 levels in the apical compartment” value with MCP-1 is given as “increases its levels”.

For the origin of these results see paper PMC8309014, “Lactose-Gated Mesoporous Silica Particles for Intestinal Controlled Delivery of Essential Oil Components: An In Vitro and In Vivo Study” (Pharmaceutics, 2021).
